The source of these data is patent US11964021B2, “Bacterially derived, intact minicells for delivery of therapeutic agents to brain tumors” (EnGeneIC Molecular Delivery Pty Ltd, priority 2011, dated 2024).

For data set [1] the following is noted: kinetics, FIG. 2A of MacDiarmid et al. Cancer Cell (2007); cited from earlier work.
Data set [2] has as its system Canine brain tumor cells BCD-1, -8, -9 and J3T. Put plainly: MTS cell proliferation assay, doxorubicin sensitivity, canine cells. Type of data set: cell-based. To be noted: 1.7 nM to 8,600 nM, 72 hours. As to the method:
(§1) Canine brain tumor cells BCD-1, -8, -9 and J3T and human brain tumor cell line U87-MG were seeded into 96 well plates at 5×10^3 cells per well. Cells were incubated overnight at 37° C., 5% CO2.
(§2) Doxorubicin was added to cells in […], of relevant media containing serum at concentrations ranging from 1.7 nM to 8,600 nM and incubated for 72 hours.
(§3) To measure the cytotoxic effect of Doxorubicin an MTS cell proliferation assay was performed. To each well 20 uL of MTS solution (CellTitre 96® Aqueous One MTS reagent—Promega) was added and incubated in the dark for 30 minutes. Absorbance was read at a wavelength of 490 nm. Data was analysed in Prism GraphPad (La Jolla, CA, USA) using non-linear regression and a 4-parameter curve fit.

The test system of data set [3] is human brain tumor cell line U87-MG. Nature of the data set: MTS cell proliferation assay, doxorubicin sensitivity, human cells. Type of data set: cell-based. The note with it: 1.7 nM to 8,600 nM, 72 hours. On the procedure: as §1, §2, §3

In the case of `N.N.[Cl][Pt][Cl]` [cisplatin, Cisplatin], in data set [1], the “leakage of drug out of intact minicells once packaged” value is recorded as “did not leak out”.
For `COc1cccc2c1C(=O)c1c(O)c3c(c(O)c1C2=O)C[C@@](O)(C(=O)CO)C[C@@H]3O[C@H]1C[C@H](N)[C@H](O)[C@H](C)O1` [doxorubicin, Doxorubicin], the “sensitivity of cells to doxorubicin” value in data set [2] and in data set [3] was “equally sensitive” each time. In data set [1], the “leakage of drug out of intact minicells once packaged” value was “did not leak out”.
